# Laboratory results taken from US8304439B1, “Use of quaternary pyridinium salts as a therapeutic or preventing agent against ionizing radiation-induced damage” (priority 2007, dated 2012).
# What was measured:
# murine leukemia L1210 = conditions: cited from earlier work; for cytotoxicity in cultured leukemia cells: comparison among the three salts
# [1] = system: male BALB/c mice, whole body irradiation 7.5 Gy; experiment: Survival of mice during 30 days following whole body gamma irradiation, compounds given before or after irradiation (Example 2); type: in vivo; conditions: 7.5 Gy whole body, from day 7 before or day 7 after irradiation until day 30
# Excerpt: (§1) The survival rate of irradiated mice treated with the compounds in comparison control was used as a measure of a radioprotective effect.
# The methodology followed was as described in B Hou. Z. W. Xu, C. W. Yang, Y. Gao, S. F. Zhao, C. G. Zhang: Protective effects of inosine on mice subjected to lethal total-body ionizing irradiation. J Radiat Res 48, 57-62, 2007. In brief, six-to-eight-week old male BALB/c mice obtained from the Nofer Institute of Occupational Medicine, ? ódź, Poland were used for the experiments. Whole bodies of the animals were exposed to a single irradiation (at the Military Institute of Chemistry and Radiometry) with gamma rays from the ^60Co source at 7.2 Gy/h mean dose rate to obtain the absorbed dose of 7.5 Gy per mouse. The absorbed doses were verified using thermoluminescent dosimeters implanted subcutaneously in the middle abdominal region. All the mice were maintained under specific pathogen-free conditions. Survival of the mice was assessed during 30 days following the irradiation.
# The mice were divided into irradiated control group receiving no treatment, irradiated treatment group receiving MNA, irradiated treatment group receiving DMP, and irradiated treatment group receiving MAP. Each of the treatment groups was divided into two subgroups, the first group in which the animals received the tested compounds starting from day 7 before the irradiation, and the second group in which the animals received the tested compounds starting from day 7 after the irradiation.
# The compounds were given dissolved in drinking water at 100 mg/kg of body weight/24 h (DMP and MAP) and 500 mg/kg of body weight (MNA)/24 h until day 30 post irradiation.
# [2] = system: mice irradiated with lethal dose of about 7.5 Gy; experiment: Survival rate of mice after whole body irradiation, MNA given before irradiation (Example 1); type: in vivo; conditions: whole body irradiation 7.5 Gy; 300 mg/kg per day in drinking water from the 7th day preceding irradiation, continued after; untreated group approximately 20%; FIG. 1
# Procedure: as §1
# The methodology used was as described by Cheda et al., Radiation Research 2004, 161, 335 (animals and irradiation).
# The survival rate of mice irradiated with lethal dose of about 7.5 Gy was tested. The treatment group received 1-methylnicotinamide chloride (MNA) in drinking water at an average dose of 300 mg/kg per day every day starting from the 7th day preceding the irradiation day. The administration was continued after irradiation. The control group received no treatment.
# [3] = 100 mg/kg/24 h in drinking water, FIG. 3, FIG. 4
SMILES,cytotoxicity in cultured leukemia cells (murine leukemia L1210),"protective activity (survival of mice) [1, 3]",concentration at which activity was observed (murine leukemia L1210; L1210 cells),"protective activity (survival of mice) ([1]; 500 mg/kg/24 h in drinking water, FIG. 2)",survival rate of mice [2]
"C[n+]1cccc([N+](=O)[O-])c1.[Cl-] [3-nitro-1-methylpyridinium chloride, 1-methyl-3-nitropyridinium chloride, reference compound]",highest cytotoxicity,,,,
"Cc1cc[n+](C)cc1.[Cl-] [DMP, 1,4-dimethylpyridinium chloride]",,exert their protective activity both when administered prior irradiation and when administered after irradiation,,,
"CC(=O)c1ccc[n+](C)c1.[Cl-] [MAP, 1-methyl-3-acetylpyridinium chloride]",several thousands times lower,exert their protective activity both when administered prior irradiation and when administered after irradiation,,,
"C[n+]1cccc(C(N)=O)c1 [MNA, 1-methylnicotinamide chloride]",several thousands times lower,,observed only at very high concentration,exert their protective activity both when administered prior irradiation and when administered after irradiation,about 50%
